According to patent publication US20250340519A1, “RADIOLABELLED COMPOUND” (OXFORD UNIVERSITY INNOVATION LIMITED, priority 2018, published 2025):

Test system: PANC-1 cells
Assay: Cell uptake of [18F]olaparib in PANC-1 cells
Assay type: cell-based, human
Details: radiation dose-dependent
Protocol: PARP1 levels in a limited selection of PDAC cell lines were determined using Western blot and confirmed by immunofluorescence microscopy. […] Uptake was reported as a percentage of the total amount added, per mg of total protein recovered from the isolated cells, determined by BCA assay. Specificity of uptake was determined by blocking olaparib binding sites using an excess of cold, unlabeled olaparib, or other PARP inhibitors (rucaparib, talazoparib).
Cell uptake of ^18F-olaparib in Panc-1, MiaPaCa-2 and Capan-1 cells was determined as previously described (Cornelissen, B., Hu, M., McLarty, K., Costantini, D. & Reilly, R. M.
Cellular penetration and nuclear importation properties of 111In-labeled and 123I-labeled HIV-1 tat peptide immunoconjugates in BT-474 human breast cancer cells. Nucl Med Biol 34, 37-46, 2007; Thurber, G. M., Reiner, T., Yang, K. S., Kohler, R. H. & Weissleder, R. Effect of small-molecule modification on single-cell pharmacokinetics of PARP inhibitors. Molecular cancer therapeutics 13, 986-995, 2014; Reiner, T., et al. Imaging therapeutic PARP inhibition in vivo through bioorthogonally developed companion imaging agents. Neoplasia 14, 169-177, 2012). Aliquots of Panc-1, MiaPaca-2, and Capan-1 cells (1.5×10^5 cells/well) were seeded in 24-well plates in warm cell culture medium (500 μL) and the cells were allowed to adhere overnight. Cells were irradiated (10 Gy; dose rate 0.8 Gy/min) or sham-irradiated and then returned to an incubator (37° C., 5% CO2) for 2 h. […] In the blocking groups, non-radioactive olaparib, talazoparib, or rucaparib were also added in increasing concentrations (10 pM-10 μM. After 30 or 60 minutes, the cell culture medium was removed and combined with two washes (500 μL) of cell culture medium. The remaining monolayer of cells was then lysed with 0.1 M sodium hydroxide for 20 minutes at room temperature. The amount of radioactivity contained within the cell culture medium and the cell lysate fractions was measured using a gamma counter. Protein levels from parallel plates were quantified using a Pierce BCA protein assay kit (Thermo Scientific) according to the manufacturer's recommendations and bovine serum albumin was used as the protein standard. Cell uptake levels of [^18F]-olaparib were normalised to percent of the total added radioactivity per milligram protein. […] IC50 values were calculated using GraphPad Prism software (GraphPad Software, San Diego, CA, USA). […]
Aliquots of Panc-1, MiaPaca-2, and Capan-1 cells (7.5×10^4 cells/well) were seeded in 24-well plates in warm cell culture medium (500 μL). […] The amount of radioactivity contained within the cell culture medium and the cell lysate fractions was measured using a gamma counter. […]

## O=C(c1cc(Cc2n[nH]c(=O)c3ccccc23)ccc1[18F])N1CCN(C(=O)C2CC2)CC1 [[^18F]olaparib]
  [^18F]olaparib uptake after gamma-irradiation: increased
